Assay results taken from patent US20130203647A1, “DELIVERY OF H[…]” (UNIVERSITY COLLEGE LONDON, priority 2010, published 2013).
Non-standard residues stand in square brackets, D forms with d. Residues, ends and D or L forms follow the SMILES beside them. ξ: configuration not given here. *: point of attachment. Palmitoyl = CCCCCCCCCCCCCCCC(=O)*; ξY = NC(Cc1ccc(O)cc1)C(=O)O; ξR = N=C(N)NCCCC(N)C(=O)O; ξF = NC(Cc1ccccc1)C(=O)O; ξL = CC(C)CC(N)C(=O)O

Key:
[1] = Pharmacokinetics: brain levels after intravenous administration (UPLC-MS/MS); type: in vivo; conditions: ICR (CD-1) mice, dalargin dose of 30 mg kg-1, FIG. 1
Protocol: (§1) ICR (CD-1) male out bred mice (18-24 g, 4 weeks old, Harlan, Oxon, UK) were used for the pharmacokinetics evaluations while ICR (CD-1) male out bred mice (22-28 g, 4-5 weeks old) were used for the pharmacodynamics evaluations. The animals were housed in groups of 5 in plastic cages in controlled laboratory conditions with ambient temperature and humidity maintained at ˜22° C. and 60% respectively with a 12-hour light and dark cycle (lights on at 7:00 and off at 19:00). Food and water were available ad libitum and the animals acclimatised for 5-7 days prior to any experiments in the Animal House, School of Pharmacy, University of London (London, UK). Animals were only used once and were acclimatised in the testing environment for at least 1 hour prior to testing. […]
Groups (n=5) of animals were administered either: NaCl (0.9% w/v), Dalargin, Dalargin-GCPQA, pDal and pDal-GCPQA. […] At various time points, animals were killed and their brain, liver and plasma analysed. […]
Brain and Liver were immediately frozen in liquid Nitrogen after being taken from the mouse. […] The brain and liver weights were determined and 2 mL water per g of brain was added to each (equivalent to 2 g of solvent to 1 g of brain). […]

mice = assay: Tail flick warm water bioassay (anti-nociception); type: in vivo; conditions: ICR (CD-1) mice, intravenous, dalargin dose of 15 mg kg-1, water at 55° C., FIG. 2
Protocol: as §1, with “UK).” for “UK). Animals were only used once and were acclimatised in the testing environment for at least 1 hour prior to testing.”
Anti-nociception was assessed in mice using the tail flick warm water bioassay (17, 18). […] The response latency times, in centiseconds, recorded for each mouse to withdraw its tail by a “sharp flick” were recorded using a digital stopwatch capable of measuring 1/100th of a second. […]
Two separate withdrawal latency determinations (separated by ≧20 sec) were averaged. […] Mice not responding within 5 sec were excluded from further testing (Baseline cut-off=5 seconds) and the baseline latency was measured for all mice 2 hours prior testing. […] Briefly, percent antinociception was calculated as 100%×(test latency-baseline latency)/(10 seconds-baseline latency). […]

Compound	Detection in the brain (brain levels) [1]	Antinociceptive effect (% of Maximum Possible Effect, tail flick) (mice)
CCCCCCCCCCCCCCCC(=O)Oc1ccc(CC(N)C(=O)N[C@H](C)C(=O)NCC(=O)NC(Cc2ccccc2)C(=O)NC(CC(C)C)C(=O)NC(CCCNC(=N)N)C(=O)O)cc1 (stereo partly drawn) [pDal, Palmitoyl Dalargin] (H-[ξY](Palmitoyl)[dA]G[ξF][ξL][ξR]-OH)	detected in the brain	
Dalargin	not detected in the brain	unable to exert an antinociceptive effect
